Values of other authors, collected in patent publication US7329656B2, “Arylthiobenzylpiperidine derivatives” (H. Lundbeck A/S, priority 2004, dated 2008).
Read-outs that look alike come from different tables or passages of the source.

What was measured:
[1] = test system: rat; conditions: rat forced-swim
[2] = test system: rat; conditions: rat social interaction
[3] = test system: guinea pig; conditions: guinea pig maternal-separation vocalization

COCC1=C(C(=O)OC)[C@H](c2ccc(F)c(F)c2)N(C(=O)NCCCN2CCC(c3cccc(NC(C)=O)c3)CC2)C(=O)N1 [SNAP-7941]
behavioral profile in model of depression and/or anxiety [1]: profile similar to clinically used anti-depressants and anxiolytics
behavioral profile in model of depression and/or anxiety [2]: profile similar to clinically used anti-depressants and anxiolytics
behavioral profile in model of depression and/or anxiety [3]: profile similar to clinically used anti-depressants and anxiolytics
